Source: article PMC10896643 (Journal of medicinal chemistry, 2023)
“Also recorded” adds a separate entry of the source.

Tests used:
4T1-Luc tumors = assay: In vivo antitumor activity in 4T1-Luc tumor-bearing mice; details: 10 mg/kg i.p., alone or with anti-PD-L1
CYP2C9 = CYP2C9 (Homo sapiens, UniProt P11712); assay: CYP isoform inhibition; format: in vitro ADME
hERG K+ channels = hERG K+ channels (Homo sapiens, UniProt Q12809); assay: hERG K+ channel inhibition; format: in vitro ADME
CYP2C19 = CYP2C19 (Homo sapiens, UniProt P33261); assay: CYP isoform inhibition; format: in vitro ADME
CYP2C19, sequence (P33261 whole entry, species assumed, canonical isoform): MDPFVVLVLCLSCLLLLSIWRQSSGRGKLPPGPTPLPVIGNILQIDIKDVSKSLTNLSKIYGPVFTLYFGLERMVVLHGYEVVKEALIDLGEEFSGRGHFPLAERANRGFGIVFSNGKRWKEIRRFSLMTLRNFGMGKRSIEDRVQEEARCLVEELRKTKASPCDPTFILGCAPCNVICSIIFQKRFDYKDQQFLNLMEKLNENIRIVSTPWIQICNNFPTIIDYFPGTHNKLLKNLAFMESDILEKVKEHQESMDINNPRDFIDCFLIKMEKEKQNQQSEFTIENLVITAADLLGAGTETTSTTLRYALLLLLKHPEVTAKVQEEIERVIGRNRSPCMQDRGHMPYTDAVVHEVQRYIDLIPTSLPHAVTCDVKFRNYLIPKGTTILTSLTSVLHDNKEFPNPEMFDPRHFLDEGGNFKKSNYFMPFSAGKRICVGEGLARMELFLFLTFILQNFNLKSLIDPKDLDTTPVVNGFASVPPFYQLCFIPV

CYP1A2 = target: T1, CYP1A2 (Homo sapiens, UniProt P05177); assay: CYP isoform inhibition; format: in vitro ADME
T1 sequence (P05177 1-516): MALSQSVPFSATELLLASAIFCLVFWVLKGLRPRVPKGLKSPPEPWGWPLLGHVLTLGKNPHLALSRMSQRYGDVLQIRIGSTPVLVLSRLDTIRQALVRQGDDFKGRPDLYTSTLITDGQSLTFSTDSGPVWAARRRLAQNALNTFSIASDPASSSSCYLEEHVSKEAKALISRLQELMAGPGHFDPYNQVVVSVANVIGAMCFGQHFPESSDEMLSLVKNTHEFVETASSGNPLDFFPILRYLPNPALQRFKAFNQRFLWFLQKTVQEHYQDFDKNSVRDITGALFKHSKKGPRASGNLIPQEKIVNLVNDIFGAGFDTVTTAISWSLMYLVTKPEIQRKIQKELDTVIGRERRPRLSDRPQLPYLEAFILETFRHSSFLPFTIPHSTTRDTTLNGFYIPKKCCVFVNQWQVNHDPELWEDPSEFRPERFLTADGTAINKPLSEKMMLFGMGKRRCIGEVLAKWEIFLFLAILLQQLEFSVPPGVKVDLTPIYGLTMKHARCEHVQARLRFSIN

CYP2D6 = CYP2D6 (Homo sapiens, UniProt P10635); assay: CYP isoform inhibition; format: in vitro ADME
CYP2D6, sequence (P10635 whole entry, species assumed, canonical isoform): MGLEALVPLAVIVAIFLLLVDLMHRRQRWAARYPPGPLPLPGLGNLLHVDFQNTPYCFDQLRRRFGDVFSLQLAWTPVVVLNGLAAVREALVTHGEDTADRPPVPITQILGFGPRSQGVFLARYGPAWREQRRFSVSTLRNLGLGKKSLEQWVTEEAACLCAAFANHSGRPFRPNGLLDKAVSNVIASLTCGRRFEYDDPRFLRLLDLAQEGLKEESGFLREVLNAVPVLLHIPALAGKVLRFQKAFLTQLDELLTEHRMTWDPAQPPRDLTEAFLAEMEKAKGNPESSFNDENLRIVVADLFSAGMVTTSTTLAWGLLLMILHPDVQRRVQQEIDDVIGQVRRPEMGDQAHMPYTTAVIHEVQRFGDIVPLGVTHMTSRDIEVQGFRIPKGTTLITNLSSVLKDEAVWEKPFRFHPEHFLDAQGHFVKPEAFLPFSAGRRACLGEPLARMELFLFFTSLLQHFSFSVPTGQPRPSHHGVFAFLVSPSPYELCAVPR

CYP3A4 = CYP3A4 (Homo sapiens, UniProt P08684); assay: CYP isoform inhibition; format: in vitro ADME
CYP3A4, sequence (P08684 whole entry, species assumed, canonical isoform): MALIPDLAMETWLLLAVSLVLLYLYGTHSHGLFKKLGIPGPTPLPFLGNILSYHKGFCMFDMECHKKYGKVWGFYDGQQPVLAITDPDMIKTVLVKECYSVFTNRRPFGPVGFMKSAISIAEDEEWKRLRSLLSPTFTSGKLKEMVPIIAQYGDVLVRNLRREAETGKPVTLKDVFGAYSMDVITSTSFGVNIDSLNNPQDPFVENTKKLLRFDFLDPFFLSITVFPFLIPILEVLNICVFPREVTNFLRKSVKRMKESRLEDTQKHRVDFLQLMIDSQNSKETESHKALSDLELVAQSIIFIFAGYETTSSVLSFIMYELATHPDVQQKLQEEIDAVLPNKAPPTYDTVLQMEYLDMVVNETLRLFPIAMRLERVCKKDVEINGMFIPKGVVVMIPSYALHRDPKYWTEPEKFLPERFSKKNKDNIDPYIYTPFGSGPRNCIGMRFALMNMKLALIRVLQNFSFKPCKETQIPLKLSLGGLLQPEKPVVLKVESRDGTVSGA

hA2AAR = hA2AAR (Homo sapiens, UniProt P29274); assay: cAMP functional assay in CHO-A2A cells; details: 10 μM
hA2AAR, sequence (P29274 whole entry): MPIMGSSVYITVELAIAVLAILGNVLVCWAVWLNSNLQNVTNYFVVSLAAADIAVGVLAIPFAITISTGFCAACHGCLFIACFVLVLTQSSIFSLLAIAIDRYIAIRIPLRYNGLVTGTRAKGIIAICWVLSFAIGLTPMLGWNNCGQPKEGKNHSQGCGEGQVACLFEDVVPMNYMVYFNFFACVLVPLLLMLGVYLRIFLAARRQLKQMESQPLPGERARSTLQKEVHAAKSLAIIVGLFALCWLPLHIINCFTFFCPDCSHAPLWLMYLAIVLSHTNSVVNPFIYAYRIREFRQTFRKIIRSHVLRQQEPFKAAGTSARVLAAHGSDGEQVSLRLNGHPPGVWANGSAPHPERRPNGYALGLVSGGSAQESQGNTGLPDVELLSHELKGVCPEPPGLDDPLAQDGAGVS

hA3AR = target: T2, hA3AR (Homo sapiens, UniProt P0DMS8); assay: cAMP functional assay in CHO-A3 cells; details: 10 μM
T2 sequence (P0DMS8 1-318): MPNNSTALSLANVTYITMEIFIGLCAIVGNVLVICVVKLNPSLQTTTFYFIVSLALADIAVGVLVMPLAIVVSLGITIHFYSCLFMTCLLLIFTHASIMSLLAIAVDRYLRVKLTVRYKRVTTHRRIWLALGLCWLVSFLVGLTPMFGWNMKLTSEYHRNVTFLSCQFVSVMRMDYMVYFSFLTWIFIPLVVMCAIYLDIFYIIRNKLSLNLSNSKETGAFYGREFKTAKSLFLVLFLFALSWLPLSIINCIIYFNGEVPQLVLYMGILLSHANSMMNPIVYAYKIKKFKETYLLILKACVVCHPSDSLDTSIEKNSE

hERG K+ channels, sequence (Q12809 whole entry, canonical isoform): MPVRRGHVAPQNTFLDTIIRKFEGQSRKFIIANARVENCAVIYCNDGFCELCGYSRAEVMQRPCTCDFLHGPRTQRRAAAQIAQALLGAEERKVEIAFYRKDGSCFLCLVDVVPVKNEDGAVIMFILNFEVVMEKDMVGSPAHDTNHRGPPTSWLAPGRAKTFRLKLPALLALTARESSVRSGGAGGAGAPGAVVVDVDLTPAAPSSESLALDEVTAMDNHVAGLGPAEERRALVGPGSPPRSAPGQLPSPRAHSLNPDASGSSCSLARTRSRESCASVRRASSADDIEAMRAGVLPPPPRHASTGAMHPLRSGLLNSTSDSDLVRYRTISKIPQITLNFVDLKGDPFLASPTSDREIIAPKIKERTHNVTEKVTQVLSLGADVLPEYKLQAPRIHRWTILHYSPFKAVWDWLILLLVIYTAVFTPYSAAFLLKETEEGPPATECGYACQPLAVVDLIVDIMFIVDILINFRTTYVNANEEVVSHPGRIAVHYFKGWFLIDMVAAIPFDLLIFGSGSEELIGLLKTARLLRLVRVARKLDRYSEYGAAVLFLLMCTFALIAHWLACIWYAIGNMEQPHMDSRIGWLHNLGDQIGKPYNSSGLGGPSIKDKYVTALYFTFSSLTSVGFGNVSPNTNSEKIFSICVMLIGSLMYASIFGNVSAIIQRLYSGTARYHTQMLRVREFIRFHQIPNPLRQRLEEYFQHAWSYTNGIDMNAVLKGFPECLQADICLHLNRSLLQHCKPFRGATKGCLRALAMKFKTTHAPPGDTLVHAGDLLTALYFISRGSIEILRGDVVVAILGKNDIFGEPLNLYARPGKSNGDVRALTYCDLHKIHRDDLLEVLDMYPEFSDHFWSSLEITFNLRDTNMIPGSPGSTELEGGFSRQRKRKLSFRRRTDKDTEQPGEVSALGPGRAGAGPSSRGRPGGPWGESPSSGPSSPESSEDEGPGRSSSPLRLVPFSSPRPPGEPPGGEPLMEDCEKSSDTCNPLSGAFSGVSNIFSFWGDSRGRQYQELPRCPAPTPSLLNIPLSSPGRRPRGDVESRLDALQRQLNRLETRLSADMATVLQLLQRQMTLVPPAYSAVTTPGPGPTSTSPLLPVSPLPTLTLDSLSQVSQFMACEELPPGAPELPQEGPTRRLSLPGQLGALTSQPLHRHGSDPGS
CYP2C9, sequence (P11712 whole entry, species assumed, canonical isoform): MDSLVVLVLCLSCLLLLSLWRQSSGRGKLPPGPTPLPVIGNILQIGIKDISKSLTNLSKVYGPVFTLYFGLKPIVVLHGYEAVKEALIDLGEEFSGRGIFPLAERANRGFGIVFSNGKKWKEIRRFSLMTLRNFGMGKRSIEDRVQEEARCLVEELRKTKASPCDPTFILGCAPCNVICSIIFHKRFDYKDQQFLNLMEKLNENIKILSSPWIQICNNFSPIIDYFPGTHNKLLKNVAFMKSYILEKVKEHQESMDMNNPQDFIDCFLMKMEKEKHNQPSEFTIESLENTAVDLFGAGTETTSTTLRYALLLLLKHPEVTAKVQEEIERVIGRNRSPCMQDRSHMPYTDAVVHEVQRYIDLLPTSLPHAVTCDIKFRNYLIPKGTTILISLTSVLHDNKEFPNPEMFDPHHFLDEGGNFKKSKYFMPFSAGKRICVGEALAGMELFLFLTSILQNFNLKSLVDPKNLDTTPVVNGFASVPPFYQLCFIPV

CYP2C9 inhibition (CYP2C9) | CYP2C19 inhibition (CYP2C19) | CYP1A2 inhibition (CYP1A2) | CYP2D6 inhibition (CYP2D6) | CYP3A4 inhibition (CYP3A4) | receptor activation / antagonism at hA2AAR (hA2AAR) | hA3AR activation (hA3AR) | SMILES | adverse effects / body weight loss (4T1-Luc tumors) | hERG K+ channel inhibition (hERG K+ channels)
did not significantly inhibit | did not significantly inhibit | did not significantly inhibit | did not significantly inhibit | did not significantly inhibit |  |  | CCCCC#Cc1nc(N)c2nc(-c3cccs3)n([C@@H]3OC[C@@H](O)[C@H]3O)c2n1 [5d, (2R,3R,4R)-2-(6-Amino-2-(hex-1-yn-1-yl)-8-(thiophen-2-yl)-9H-purin-9-yl)tetrahydrofuran-3,4-diol] | No adverse effects or body weight loss; also recorded: without any adverse effects and body weight loss | did not significantly inhibit
 |  |  |  |  | no receptor activation | inhibited hA3AR activation | CCCCC#Cc1nc(N)c2nc(-c3ccco3)n([C@@H]3OC[C@@H](O)[C@H]3O)c2n1 [5a, (2R,3R,4R)-2-(6-Amino-8-(furan-2-yl)-2-(hex-1-yn-1-yl)-9H-purin-9-yl)tetrahydrofuran-3,4-diol] |  | 
